In test [1] the target is Nucleic Acid. Nature of the test: Binding affinity to tau stem-loop RNA assessed as inhibition of RNA stem-loop unfolding. The class given is nucleic-acid assay.
The target in test [2] is Nucleic Acid. Kind of test: Displacement of fluorescent pyrene-neomycin conjugate from tau stem-loop RNA. Type of test: nucleic-acid assay.

What is called IC50 is the midpoint of a concentration-inhibition curve. Broadly, the EC50 is the midpoint of the concentration-response curve. The low end stands for greater potency, the high end for weaker potency.

As for `O=C1c2c(NCCNCCO)ccc(NCCNCCO)c2C(=O)c2c(NCCNCCO)ccc(NCCNCCO)c21`, at Nucleic Acid [1], the IC50 worked out at 340 nM. This molecule registered a 50% effective concentration (EC50) on Nucleic Acid [2] of 1200 nM.
Consider `Nc1ccc(N)c2c1C(=O)c1c(O)ccc(O)c1C2=O`, for which the IC50 at Nucleic Acid [1] is over 100000 nM. Besides, the EC50 on Nucleic Acid [2] is over 100000 nM.
As to `NCCNCCNCCNc1ccc(NCCNCCNCCN)c2c1C(=O)c1c(O)ccc(O)c1C2=O`, the concentration for half-maximal inhibition (IC50) on Nucleic Acid [1] worked out at 130 nM. For the same molecule, on Nucleic Acid [2], the midpoint of the response, the EC50, lay at 130 nM.
For the molecule `CC(C)(C)OC(=O)NCCNCCNc1ccc(NCCNCCO)c2c1C(=O)c1c(O)ccc(O)c1C2=O`, the IC50 on Nucleic Acid [1] was 2400 nM. The molecule further registered an EC50 at Nucleic Acid [2] of 12000 nM.
On to `NCCNCCNc1ccc(NCCNCCN)c2c1C(=O)c1c(O)ccc(O)c1C2=O`, for which the IC50 on Nucleic Acid [1] was 130 nM. The EC50 on Nucleic Acid [2] came out at 160 nM.
The like results for `Nc1ccc(NCCNCCO)c2c1C(=O)c1c(O)ccc(O)c1C2=O` were, in that order, 5800 nM and 29000 nM.
The matching figures for `O=C1c2c(O)ccc(NCCNCCO)c2C(=O)c2c(NCCNCCO)ccc(O)c21`: 1500 nM and 4400 nM.
`NCCNCCNc1ccc(NCCNCCO)c2c1C(=O)c1c(O)ccc(O)c1C2=O`: the IC50 at Nucleic Acid [1] was 180 nM. This molecule registered an EC50 on Nucleic Acid [2] of 310 nM.
The like results for `O=C1c2c(O)ccc(O)c2C(=O)c2c(NCCOCCO)ccc(NCCNCCO)c21` were, in that order, 5700 nM and 14000 nM.
The like results for `O=C1c2c(O)ccc(NCCNCCO)c2C(=O)c2c(NCCNCCO)ccc(NCCNCCO)c21` were, in that order, 420 nM and 800 nM.
The like results for `O=C1c2c(F)ccc(F)c2C(=O)c2c(NCCNCCO)ccc(NCCNCCO)c21` were, in that order, 2300 nM and 16000 nM.
With `NCCNCCNCCNc1ccc(NCCNCCO)c2c1C(=O)c1c(O)ccc(O)c1C2=O`, at Nucleic Acid [1], the IC50 stood at 230 nM. This molecule registered an EC50 at Nucleic Acid [2] of 380 nM.
For `O=C1c2c(O)ccc(O)c2C(=O)c2c(NCCNCCO)ccc(F)c21`, the IC50 on Nucleic Acid [1] stood at 5700 nM. For the same molecule, a half-maximal effect on Nucleic Acid [2] (EC50) was put at 75000 nM.
In the case of `Nc1ccc(N)c2c1C(=O)c1c(N)ccc(N)c1C2=O`, the IC50 at Nucleic Acid [1] is over 100000 nM. The concentration for a half-maximal effect (EC50) at Nucleic Acid [2] is over 100000 nM.
Turning to `Nc1ccc(O)c2c1C(=O)c1c(N)ccc(O)c1C2=O`, the IC50 on Nucleic Acid [1] was over 100000 nM. The same molecule came in with an EC50 on Nucleic Acid [2] of over 100000 nM.
As to `O=C1c2c(O)ccc(O)c2C(=O)c2c(NCCNCCO)ccc(NCCNCCO)c21` [MITOXANTRONE], the 50% inhibitory concentration (IC50) at Nucleic Acid [1] worked out at 460 nM. This molecule also came in with an EC50 on Nucleic Acid [2] of 890 nM.

These data come from ChEMBL document CHEMBL1154635, “Mitoxantrone analogues as ligands for a stem-loop structure of tau pre-mRNA” (J Med Chem, 2009).
